Experimental data as given in patent publication US11040994B2, “Cobalt complexes, process for preparation and use thereof” (COUNCIL OF SCIENTIFIC AND INDUSTRIAL RESEARCH, priority 2017, dated 2021).

Columns and labels:
[1] = target: full-length Tau aggregates (Homo sapiens, UniProt P10636); conditions: highest concentration (range 0.01 mg/mL to 0.1 mg/mL); ThS fluorescence
Procedure: (§1) Disaggregation assay: The potency of the metal complexes for disaggregating the preformed Tau aggregates was also analysed. Soluble Tau was dissolved in assembly buffer and was incubated at 37° C. for PHF assembly. The formation of aggregates was analysed by fluorescence assay and SDS-PAGE. Thus formed aggregates were diluted to 0.91 mg/mL final concentration in 20 mM BES buffer, pH 7.4 and this mixture was incubated with increasing concentration of metal complex as discussed earlier.
(§2) Thioflavin S fluorescence assay: 5 μl of reaction mixture was diluted with 8 μM ThS in 50 mM ammonium acetate, pH 7.4 and added to 384 well plates in triplicates. Subsequently blank was also prepared for subtracting background fluorescence. The plate was incubated in the dark before measuring ThS fluorescence for 20 minutes, at an emission wavelength of 521 nm by exciting it at 440 nm in Tecan Infinite 200 PRO multimode microplate reader.

full-length Tau = full-length Tau (Homo sapiens, UniProt P10636); conditions: for maximum inhibition of full-length Tau aggregation: 0.05 and 0.1 mg/mL complex
full-length Tau, sequence (P10636 1-441 isoform P10636-8): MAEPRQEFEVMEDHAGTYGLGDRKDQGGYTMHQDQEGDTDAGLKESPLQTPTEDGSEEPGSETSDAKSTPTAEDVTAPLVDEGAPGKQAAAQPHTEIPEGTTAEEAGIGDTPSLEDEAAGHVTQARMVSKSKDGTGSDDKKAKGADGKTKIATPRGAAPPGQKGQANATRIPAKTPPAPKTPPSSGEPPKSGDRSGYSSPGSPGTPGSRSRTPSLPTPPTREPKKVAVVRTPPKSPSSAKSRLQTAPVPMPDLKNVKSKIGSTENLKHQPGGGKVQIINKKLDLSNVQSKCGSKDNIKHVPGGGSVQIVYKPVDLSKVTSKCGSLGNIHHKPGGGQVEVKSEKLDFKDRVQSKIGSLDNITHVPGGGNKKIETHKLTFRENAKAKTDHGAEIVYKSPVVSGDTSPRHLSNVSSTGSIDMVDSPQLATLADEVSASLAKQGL
Procedure: Tau was induced to aggregate as described previously with certain modifications. In presence heparin (17,500 Da) in the ratio of 4:1, Tau was polymerized in assembly buffer containing 20 mM BES. pH 7.4, 25 mM NaCl, 1 mM DTT, 0.01% NaN3 and protease inhibitor cocktails. The reaction mixture was incubated at 37° C. and the aggregates formation was monitored by ThS fluorescence, SDS-PAGE and TEM at certain time intervals. The Tau protein was allowed to assemble in presence and absence of compounds in increasing concentrations with constant Tau concentrations of 0.91 mg/mL and 0.28 mg/mL for full-length and four repeat Tau respectively. The changes in the conformation of Tau protein was monitored by CD spectroscopy.
as §2

Tau PHFs = Tau PHFs (Homo sapiens, UniProt P10636); conditions: for Tau disaggregation by TEM: 0 hour; for Tau PHF disaggregation by TEM: prolonged incubation
Tau PHFs, sequence (P10636 1-441 isoform P10636-8): as above
Procedure: as §1
Transmission Electron Microscopy (TEM): The degree of aggregates formation in presence of the metal complexes was analysed by TEM (Tecnai T-20). The assay mixture was diluted to 1 μM final concentration and spotted on the carbon coated copper grids. This was further stained by 2% uranyl acetate to observe the morphology of aggregates under TEM.

[2] = heparin as inducer, ThS fluorescence

full-length Tau aggregates, sequence (P10636 1-441 isoform P10636-8): as above

| Compound | disaggregation of full-length Tau aggregates [1] [%] | maximum inhibition of full-length Tau aggregation (full-length Tau; [2]) | effectiveness in inhibiting aggregation compared between complexes (full-length Tau; lower concentration) | Tau disaggregation by TEM (Tau PHFs) | Tau PHF disaggregation by TEM (Tau PHFs) | inhibition rate of full-length Tau aggregation (full-length Tau; highest concentration of 0.1 mg/mL, heparin as inducer, ThS fluorescence) [%] |
| --- | --- | --- | --- | --- | --- | --- |
| [Cl][Co][Cl].c1cc(CN2CCOCC2)nc(CN2CCOCC2)c1 [L2, Cobalt(II)(2,6-bis(morpholinomethyl)pyridine)chloride] | 72 | about 97% | more effective in comparison with L1 and L3 | very negligible effect | destructed into shorter filaments |  |
| Cobalt(II)(2,6-bis((4-methylpiperazin-1-yl)methyl)pyridine)chloride [L3] | 77 | about 97% |  | very negligible effect | destructed into shorter filaments |  |
| Cobalt(II)(2,6-bis(piperazin-1-ylmethyl)pyridine)chloride [L1] | 74 |  |  | very negligible effect | destructed into shorter filaments | 97 |
